According to patent US11466326B2, “Methods and kit for diagnosing and treating colorectal cancer based on AvrA and Wnt1” (The Board of Trustees of the University of Illinois, priority 2018, dated 2022):
Peptide text beside a SMILES is read from it. * marks the point of attachment. Cbz = O=C(OCc1ccccc1)*

Assays:
[1] = system: Wnt1 protein; assay: Wnt1 protein level after Salmonella infection in the presence of a proteasome inhibitor; type: cell-based, human; details: in the presence of MG132; compared with control cells without treatment
Procedure: (§1) Western Blot Analysis of Cell Line Proteins. Infected or control cells were rinsed twice in ice-cold HESS and lysed in protein loading buffer (50 mM Tris, pH 6.8, 100 mM dithiothreitol, 2% SDS, 0.1% bromophenol blue, and 10% glycerol). Equal amounts of protein were separated by SDS-polyacrylamide gel electrophoresis, transferred to nitrocellulose membranes, and analyzed by immunoblotting with anti-Wnt1 and anti-β-actin antibodies (Bioworld). The signals were visualized and quantitated using LI-COR Odyssey v3.0 software after probing the membranes with an infrared-conjugated secondary antibody.

[2] = system: Wnt1 protein; assay: Wnt1 protein level by immunoblot after LPS treatment of human epithelial cells; type: cell-based; details: cells treated with LPS, total cell lysates
Procedure: as §1

Compound | Wnt1 protein levels after Salmonella infection [1] | change in Wnt1 expression (decrease as seen with Salmonella) [2]
CC(C)C[C@@H](C=O)NC(=O)[C@H](CC(C)C)NC(=O)[C@H](CC(C)C)NC(=O)OCc1ccccc1 [MG132] (Cbz-Leu-Leu-Leu-aldehyde) | stabilized | 
lipopolysaccharide [LPS] |  | not observed
